Test results taken from patent EP4417616A1, “LXR ANTAGONISTS” (Ospedale San Raffaele S.r.l., priority 2023, dated 2024).

Legend:
[1] = test system: MC-38-OVA-liver metastases; assay type: in vivo, mice; conditions: 1440 h
Experimental: . Forty-eight hours later the cells were differentiated and expanded by IL-7/IL15 (5ng/ml both cytokines) with or without PFM037. Ten, 12 and 15 days later, FACS analysis was performed to evaluate their differentiation status. […]. Then, mice bearing MC-38-OVA-liver metastases were treated with vehicle, or OT-I T cells expanded with IL-2 (effectors), or IL-7/IL15 with or without PFM037. Tumor-bearing mice injected with vehicle were all dead 40 days after tumor injection. Twenty percent of tumor-bearing mice treated with OT-I T cells expanded with IL-2 were alive at 60 days, whereas 50% and 80% of tumor-bearing mice treated with IL-7/IL15 with or without PFM037, respectively, were alive at 60 days (Fig. 20). […].

IL-1β release = test: IL-1β release; conditions: at early times after PFM037 treatment
[2] = test system: LXR target genes ABCA1, SREBP1c, FASN and SCD1; test: Quantitative Real-Time-PCR of LXR target genes in PMA-differentiated U937 cells; assay type: cell-based, human; conditions: U937 differentiated with PMA 72 hours; PFM037 50, 25 and 10 µM, 16 hours
Experimental: Reporter assay for nuclear receptor transcriptional activity. Human embryonic Kidney 293 cells (American Type Culture Collection) were cultured in Dulbecco's Modified Eagle's medium containing 10% of fetal bovine serum at 37°C in humidified atmosphere of 5% CO2. HEK293 cells (4×10^4 cells per well) were transiently transfected in 48 well plate with the reporter plasmids pMH100X4-TK-luc (100 ng/300µl), Renilla (22 ng/300µl) together with 100 ng/300µl of pCMX-Gal4-LXRα or pCMX-Gal4-LXRβ plasmids using X-tremeGENE 9 DNA Transfection Reagent (Roche). Six hours after transfection, the cells were treated with the appropriate compound for 24 hours. Luciferase activities were analyzed by luciferase Dual Reporter Assay Systems (Promega) according to the manufacturer's protocol. GAL4-LXRs, and TK-MHC100-luc plasmids were described in^7. For mammalian two-hybrid assays the human liver cell line Hhu7 (American Type Culture Collection) was transiently transfected with the reporter plasmids p5xUAS-tk-Luc (100 ng/300µl) together with pGAL4-RAP250-Del4 (133 ng/300µl), described in^39, and either of pVP16-LXRα-LBD or pVP16-LXRβ-LBD plasmids (133 ng/300µl), described in^40, using the jetPrime transfection reagent (Polyplus). Six hours after transfection, the cells were treated with the appropriate compound for 40 hours. Luciferase activity was analyzed as described above and protein content spectrophotometrically using Coomassie Plus Protein assay reagent (Thermo Scientific). Quantitative Real-Time-PCR. U937 cell line was differentiated in foam macrophages with phorbol 12-myristate 13-acetate (PMA) 10 ng/ml (Sigma) for 72 hours at 37°C in RPMI 10% FBS. At day 3 T0901317 (10 µM) or different amount of PFM037 (50, 25 and 10 µM) were added for 16 hours. Total RNA was purified by TRIZOL (Invitrogen). Reverse transcription was performed by MLV-reverse transcriptase (Promega). QPCR was performed using SYBR Green Master Mix (Applied Biosystems) and real-time PCR (Viia 7 Real Time PCR System, Applied Biosystems). PCR reactions were done in triplicate. The comparative Ct method was used to quantify transcripts that were normalized for human GAPDH. The following primer pairs were used: • GAPDH-F 5'-ACATCATCCCTGCCTCTACTG-3' (SEQ ID No. 1); • GAPDH-R 5'-ACCACCTGGTGCTCAGTGTA-3'(SEQ ID No. 2); • ABCA1-F 5'-CCA GGC CAG TAC GGA ATT C-3' (SEQ ID No. 3); • ABCA1-R 5'-CCT CGC CAA ACC AGT AGG A-3' (SEQ ID No. 4); • SREBP-1c-F 5'-GGC GGG CGC AGA TC-3' (SEQ ID No. 5); • SREBP-1c-R 5'-TTGTTGATAAGCTGAAGCATGTCT-3' (SEQ ID No. 6); • FAS F 5'-ACA GCG GGG AAT GGG TAC T-3'(SEQ ID No. 7); • FAS R 5'-GACTGGTACAACGAGCGGAT-3' (SEQ ID No. 8); • SCD1-F 5'-TTCAGAAACACATGCTGATCCTCATAATTC-3' (SEQ ID No. 9); • SCD1-R 5'-ATTAAGCACCACAGCATATCGCAAGAAAGT-3'(SEQ ID No. 10)

[3] = test system: B16F1 melanoma expressing OVA; test: Antitumor activity of expanded OT-I T cells in mice bearing B16F1 melanoma expressing OVA; assay type: in vivo; conditions: 7-day established tumors; vs OT-I expanded with IL-2 or IL-7/IL15 without PFM037
Experimental: To evaluate whether PFM037 induces functional and phenotypic changes of in vitro activated OT-T cells, OT-I T cells were activated in the presence of anti-CD3/CD28 coated beads and IL-2. Forty-eight hours later the cells were differentiated and expanded by IL-7/IL15 (5ng/ml both cytokines) with or without PFM037. Ten, 12 and 15 days later, FACS analysis was performed to evaluate their differentiation status. […] T cells expanded by IL7 and II,15 in the presence of PFM037 also expressed at higher levels the sternness markers Sca1, Tcf1 and CXCR3. […] First, OT-I T cells expanded with IL-2 (effectors) or IL-7/ILIS with or without PFM037 (memory T cells) were injected in mice bearing 7-day established B16F1 melanoma expressing OVA. […] Then, mice bearing MC-38-OVA-liver metastases were treated with vehicle, or OT-I T cells expanded with IL-2 (effectors), or IL-7/IL15 with or without PFM037. Tumor-bearing mice injected with vehicle were all dead 40 days after tumor injection. Twenty percent of tumor-bearing mice treated with OT-I T cells expanded with IL-2 were alive at 60 days, whereas 50% and 80% of tumor-bearing mice treated with IL-7/IL15 with or without PFM037, respectively, were alive at 60 days (Fig. 20). […]

LLC tumor cells = test: In vitro growth of LLC tumor cells; assay type: cell-based, mouse; conditions: compared with vehicle
RMA lymphoma = test: Treatment of RMA tumor-bearing mice; conditions: 300 µg i.v. 5 days/week
Experimental: Analysis of tumor infiltrating cells by flow cytometry. […] Tumors collected 7, 10, 12 or 14 days after injection were cut into small fragments and digested with Liberase TL (66 µg/ml, Roche) and DNAse I (150 µg/ml, Roche) for 25-30 minutes at 37 °C. Digested tissues were filtered by using a 75 µm diameter cell strainer. Single cell suspensions were stained with Live/Dead Violet kit reagents (Molecular Probes) for 30 minutes at 4°C. After washing, the cells were incubated for 5-10 minutes at RT with Fc-blocking solution (Anti-CD16/32, 10 µg/ml mouse Fc Block, BD) and then stained with various antibodies incubated at 4°C for 20 minutes. […] CD209a (5H10), CCR7 (4b12) and F4/80 (BM8) were from eBioscience. Rat IgG, Rat IgG2a, Rat IgG2b, Rat IgM and Hamster isotype control mAbs were used as controls (Biolegends and BD Biosciences). For intracellular staining, cells were incubated with PMA (100 ng/ml) and ionomycin (500 ng/ml) in the presence of 10 µg/ml of Brefeldin for 4 hours. Cells were then fixed using the IC Fixation buffer (eBioscience), permeabilized with 1x Permeabilization buffer (eBiosciences) and stained with anti-IFNy mAb. Samples were run by FACSCanto flow cytometer and analyzed by FlowJo software gating on live cells. FACS sorting was performed by using the FACSAria Fusion (BD)
Tumor challenge experiments. C57BL/6 mice were injected subcutaneously with LLC-Mock (1 ×10^6), LLC-SULT2B1b (1 ×10^6), RMA (2 ×10^5), or B16F1-OVA (2 ×10^5) tumor cells. […] Tumor size was evaluated by measuring perpendicular diameters by a caliper every 2-3 days. Data are reported as the average tumor volume ± SD. In selected experiments tumors were injected in Ccr2^-/-mice.
Treatment of tumor-bearing mice with LXR antagonists alone or with immunotherapy. Tumor-bearing mice were treated with 25-HC-3S or PFM037 6-7 days after tumor challenge. After 6-7 days, mice were randomly assigned to either treatment or vehicle groups. Mice were injected with 300 µg of either compound given i.v. for 5 days/week. […] B16F1-OVA-bearing mice were treated with 400 µg of PFM037 for 5 days/week. For controls of mAb experiments, mice were injected with 250 µg of rat IgG2a isotype control antibody. […] Tumors were collected and measured 14 days after tumor challenge.

## CC(C)CC[C@H](O)[C@@H](C)[C@H]1CC[C@H]2[C@@H]3CC=C4C[C@@H](OS(=O)(=O)[O-])CC[C@]4(C)[C@H]3CC[C@]12C.[Na+] [PFM037, 22(S)-Hydroxycholesterol-3-sulfate sodium salt]
[1]
  tumor-bearing mice alive at 60 days: 50%
IL-1β release
  IL-1β release: no difference
[2]
  ABCA1 transcripts: no activation
  FASN mRNA expression: inhibition
  SCD1 mRNA expression: inhibition
  SREBP-1c mRNA expression: inhibition
[3]
  tumor growth control by OT-I T cells expanded with PFM037: significantly better
LLC tumor cells
  in vitro growth of LLC tumor cells: grew in a similar manner
RMA lymphoma
  numbers of tumor-infiltrating mono-DCs: Higher
RMA lymphoma; tumor weight at sacrifice
  tumor growth: tumor growth control
